pIC50: −log10 of the molar value.
Tests used:
[1] = molecular target: T1, human LPA1 receptor (Homo sapiens, UniProt Q92633); test: LPA1 binding (GTPγS binding assay, membranes of CHO cells expressing human LPA1); assay type: biochemical; conditions: 900 nM LPA, [35S]-GTPγS
T1 construct: the full-length cDNA for human LPA1 was obtained by PCR of the reverse transcription reaction; expressed in transfected cells
Experimental: A 1.1 kb cDNA encoding the human LPA1 receptor was cloned from human lung. Human lung RNA (Clontech Laboratories, Inc. USA) was reverse transcribed using the RETROscript kit (Ambion, Inc.) and the full-length cDNA for human LPA1 was obtained by PCR of the reverse transcription reaction. The nucleotide sequence of the cloned human LPA1 was determined by sequencing and confirmed to be identical to the published human LPA1 sequence (An et al. Biochem. Biophys. Res. Commun. 231:619 (1997). The cDNA was cloned into the pCDNA5/FRT expression plasmid and transfected in CHO cells using lipofectamine 2000 (Invitrogen Corp., USA). Clones stably expressing human LPA1 were selected using hygromycin and identified as cells that show Ca-influx in response to LPA.
The ability of a compound to inhibit binding of GTP to LPA1 is assessed via a membrane GTPγS assay. CHO cells stably expressing the recombinant human LPA1 receptor are resuspended in 10 mM Hepes, 7.4 containing 1 mM DTT, lysed and centrifuged at 75,000×g to pellet the membranes. The membranes are resuspended in 10 mM Hepes, 7.4 containing 1 mM DTT and 10% glycerol. Membranes (˜25 μg per well) are incubated in 96-well plates with 0.1 nM [^35S]-GTPγS, 900 nM LPA, 5 μM GDP, and test compound in Assay Buffer (50 mM Hepes, pH 7.4, 100 mM NaCl, 10 mM MgCl2, 50 μg/ml saponin and 0.2% fatty-acid free human serum albumin) for 30 minutes at 30° C. The reactions are terminated by rapid filtration through Whatman GF/B glass fibre filter plates. The filter plates are washed 3 times with 1 ml cold Wash Buffer (50 mM Hepes, 7.5, 100 mM NaCl and 10 mM MgCl2) and dried. Scintillant is then added to the plates and the radioactivity retained on the filters is determined on a Packard TopCount (Perkin Elmer). Specific binding is determined as total radioactive binding minus non-specific binding in the absence of the ligand (900 nM LPA). IC50s were determined using Graphpad prism analysis of drug titration curves.

[2] = system: A2058 human melanoma cells; test: LPA1 chemotaxis assay; assay type: cell-based; conditions: 100 nM LPA, read-out: IC50, inhibition of LPA-driven chemotaxis
Experimental: Chemotaxis of the A2058 human melanoma cells was measured using the Neuroprobe ChemoTx® System plates (8 μm pore size, 5.7 mm diameter sites). The filter sites were coated with 0.001% fibronectin (Sigma) in 20 mM Hepes, pH 7.4 and allowed to dry. A2058 cells were serum-starved for 24 hours, then harvested with Cell Stripper and resuspended in DMEM containing 0.1% fatty-acid-free bovine serum albumin (BSA) to a concentration of 1×10^6/ml. Cells were mixed with an equal volume of test compound (2×) in DMEM containing 0.1% fatty-acid-free BSA and incubated at 37° C. for 15 minutes. LPA (100 nM in DMEM containing 0.1% fatty-acid-free BSA) or vehicle was added to each well of the lower chamber and 50 μl of the cell suspension/test compound mix was applied to the upper portion of the ChemoTx plate. Plates were incubated at 37° C. for three hours and then the cells removed from the upper portion by rinsing with PBS and scraping. The filter was dried then stained with HEMA 3 Staining System (Fisher Scientific). The absorbance of the filter was read at 590 nm and IC50s were determined using Symyx Assay Explorer.

[3] = molecular target: T2, human LPA2 receptor (Homo sapiens, UniProt Q9HBW0); test: LPA2 calcium flux assay (B103 cells transiently expressing human LPA2); assay type: cell-based; conditions: read-out: LPA2 Binding IC50
T2 construct: The full-length cDNA fragment for human LPA2 was obtained by PCR from the vector; expressed in transfected cells; host or cells: B103 cells (pCDNA3.1, transient, lipofectamine 2000)
Experimental: A vector containing the human LPA2 receptor cDNA was obtained from the Missouri S&T cDNA Resource Center (www.cdna.org). The full-length cDNA fragment for human LPA2 was obtained by PCR from the vector. The nucleotide sequence of the cloned human LPA2 was determined by sequencing and confirmed to be identical to the published human LPA2 sequence (NCBI accession number NM_004720). The cDNA was cloned into the pCDNA3.1 expression plasmid and transfected into B103 cells (Invitrogen Corp., USA) by seeding cells in a 96-well poly-D-lysine coated plate at 30,000-35,000 cells per well together with 0.2 μl lipofectamine 2000 and 0.2 μg of the LPA2 expression vector. Cells were cultured overnight in complete media before being assayed for LPA-induced Ca-influx.
(§1) Following an overnight culture with lipofectamine 2000 and the LPA2 expression vector, the B103 cells are washed once with PBS then serum starved for 4 hours. A calcium indicator dye (Calcium 4, Molecular Devices) in assay buffer (HBSS with Ca^2+ and Mg^2+ and containing 20 mM Hepes and 0.3% fatty-acid free human serum albumin) is added to each well and incubation continued for 1 hour at 37° C. 10 μl of test compounds in 2.5% DMSO are added to the cells and incubation continued at room temperature for 30 minutes. Cells are the stimulated by the addition of 10 nM LPA and intracellular Ca^2+ measured using the Flexstation 3 (Molecular Devices). IC50s are determined using Graphpad prism analysis of drug titration curves.

[4] = molecular target: T3, human LPA3 receptor (Homo sapiens, UniProt Q9UBY5); test: LPA3 calcium flux assay (CHO cells stably expressing human LPA3); assay type: cell-based; conditions: read-out: LPA3 Binding IC50
T3 construct: The full-length cDNA fragment for human LPA3 was obtained by PCR from the vector; expressed in transfected cells
T3 sequence (Q9UBY5 1-353): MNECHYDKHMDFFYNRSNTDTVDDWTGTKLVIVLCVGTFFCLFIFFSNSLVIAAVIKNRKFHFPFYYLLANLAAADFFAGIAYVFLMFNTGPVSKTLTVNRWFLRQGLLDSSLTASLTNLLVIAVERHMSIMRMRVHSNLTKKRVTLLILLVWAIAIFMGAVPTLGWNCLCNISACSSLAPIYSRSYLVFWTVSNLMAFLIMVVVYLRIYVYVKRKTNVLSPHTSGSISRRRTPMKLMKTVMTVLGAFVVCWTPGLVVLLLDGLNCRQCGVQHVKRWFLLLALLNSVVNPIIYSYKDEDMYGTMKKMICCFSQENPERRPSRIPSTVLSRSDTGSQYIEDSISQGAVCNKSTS
Experimental: A vector containing the human LPA3 receptor cDNA was obtained from the Missouri S&T cDNA Resource Center (www.cdna.org). The full-length cDNA fragment for human LPA3 was obtained by PCR from the vector. The nucleotide sequence of the cloned human LPA3 was determined by sequencing and confirmed to be identical to the published human LPA3 sequence (NCBI accession number NM_012152). The cDNA was cloned into the pCDNA5/FRT expression plasmid and transfected in CHO cells using lipofectamine 2000 (Invitrogen Corp., USA). Clones stably expressing human LPA3 were selected using hygromycin and identified as cells that show Ca-influx in response to LPA.
as §1, with “Human LPA1 or LPA3 expressing CHO cells are seeded at 20,000-45,000 cells per well in a 96-well poly-D-lysine coated plate one or two days before” for “Following an overnight culture with lipofectamine 2000 and”, “assay. Prior to” for “LPA2 expression vector,”, “assay, the” for “B103”, “PBS and” for “PBS”, “cultured in serum-free media overnight. On the day of the assay, a” for “serum starved for 4 hours. A”

T2 sequence (Q9HBW0 whole entry, the tested form may be a part): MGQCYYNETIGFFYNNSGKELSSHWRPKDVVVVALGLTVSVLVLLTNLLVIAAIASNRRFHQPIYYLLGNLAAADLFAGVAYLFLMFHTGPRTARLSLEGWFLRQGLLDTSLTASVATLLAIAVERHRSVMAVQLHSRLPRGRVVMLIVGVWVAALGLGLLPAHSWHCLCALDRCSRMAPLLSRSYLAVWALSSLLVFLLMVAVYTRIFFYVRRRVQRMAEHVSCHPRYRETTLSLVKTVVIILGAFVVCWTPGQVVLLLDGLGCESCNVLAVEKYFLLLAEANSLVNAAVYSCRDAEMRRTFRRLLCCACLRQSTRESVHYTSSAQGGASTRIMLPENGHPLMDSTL
T1 sequence (Q92633 whole entry): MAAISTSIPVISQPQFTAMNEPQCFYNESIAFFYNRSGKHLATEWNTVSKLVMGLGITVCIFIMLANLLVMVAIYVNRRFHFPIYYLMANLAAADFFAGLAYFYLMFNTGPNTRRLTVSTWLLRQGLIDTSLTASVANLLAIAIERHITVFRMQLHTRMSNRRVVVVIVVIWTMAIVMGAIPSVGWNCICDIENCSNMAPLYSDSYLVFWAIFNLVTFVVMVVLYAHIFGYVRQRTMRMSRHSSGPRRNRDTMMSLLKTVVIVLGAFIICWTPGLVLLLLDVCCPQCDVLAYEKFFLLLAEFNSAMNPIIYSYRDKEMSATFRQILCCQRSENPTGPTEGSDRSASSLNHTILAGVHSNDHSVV

Row | Structure (SMILES) | pIC50 [1] | pIC50 [2] | pIC50 [3] | pIC50 [4]
1 | Cc1ccccc1-c1cncc(Nc2c(C)noc2-c2ccc(-c3ccc(C4(C(=O)O)CC4)cc3)cc2)c1 [Compound 4, 1-(4′-{3-Methyl-4-[5-(2-methyl-phenyl)-pyridin-3-ylamino]-isoxazol-5-yl}-biphenyl-4-yl)-cyclopropanecarboxylic acid] | > 6.52 | > 6.30 | > 6.52 | > 6.52
2 | Cc1cccc(-c2cncc(Nc3c(C)noc3-c3ccc(-c4ccc(C5(C(=O)O)CC5)cc4)cc3)c2)c1 [Compound 5, 1-(4′-{3-Methyl-4-[5-(3-methyl-phenyl)-pyridin-3-ylamino]-isoxazol-5-yl}-biphenyl-4-yl)-cyclopropanecarboxylic acid] | > 6.52 | > 6.30 | > 6.52 | > 6.52
3 | Cc1ccc(-c2cncc(Nc3c(C)noc3-c3ccc(-c4ccc(C5(C(=O)O)CC5)cc4)cc3)c2)cc1 [Compound 6, 1-(4′-{3-Methyl-4-[5-(4-methyl-phenyl)-pyridin-3-ylamino]-isoxazol-5-yl}-biphenyl-4-yl)-cyclopropanecarboxylic acid] | > 6.52 | > 6.30 | > 6.52 | > 6.52
4 | Cc1cccc(-c2cccc(Nc3c(C)noc3-c3ccc(-c4ccc(C5(C(=O)NS(C)(=O)=O)CC5)cc4)cc3)n2)c1 [Compound 8, N-(1-{4′-[3-Methyl-4-(6-(3-methyl-phenyl)-pyridin-2-ylamino)-isoxazol-5-yl]-biphenyl-4-yl}-cyclopropanecarbonyl)-methanesulfonamide] | > 6.52 |  | > 6.52 | > 6.52
5 | Cc1cccc(-c2cncc(Nc3c(C)noc3-c3ccc(-c4ccc(C5(C(=O)NS(C)(=O)=O)CC5)cc4)cc3)c2)c1 [Compound 11, N-(1-{4′-[3-Methyl-4-(5-(3-methyl-phenyl)-pyridin-3-ylamino)-isoxazol-5-yl]-biphenyl-4-yl}-cyclopropanecarbonyl)-methanesulfonamide] | > 6.52 |  | > 6.52 | > 6.52

Further lines, results first:

Row | pIC50 [1] | pIC50 [2] | pIC50 [3] | pIC50 [4] | Structure (SMILES)
6 | > 6.52 | > 6.30 | > 6.52 | > 6.52 | Cc1ccccc1-c1cccc(Nc2c(C)noc2-c2ccc(-c3ccc(C4(C(=O)O)CC4)cc3)cc2)n1 [Compound 1, 1-(4′-{3-Methyl-4-[6-(2-methyl-phenyl)-pyridin-2-ylamino]-isoxazol-5-yl}-biphenyl-4-yl)-cyclopropanecarboxylic acid]
7 | > 6.52 | > 6.30 | > 6.52 | > 6.52 | Cc1cccc(-c2cccc(Nc3c(C)noc3-c3ccc(-c4ccc(C5(C(=O)O)CC5)cc4)cc3)n2)c1 [Compound 2, 1-(4′-{3-Methyl-4-[6-(3-methyl-phenyl)-pyridin-2-ylamino]-isoxazol-5-yl}-biphenyl-4-yl)-cyclopropanecarboxylic acid]
8 | > 6.52 | > 6.30 | > 6.52 | > 6.52 | Cc1ccc(-c2cccc(Nc3c(C)noc3-c3ccc(-c4ccc(C5(C(=O)O)CC5)cc4)cc3)n2)cc1 [Compound 3, 1-(4′-{3-Methyl-4-[6-(4-methyl-phenyl)-pyridin-2-ylamino]-isoxazol-5-yl}-biphenyl-4-yl)-cyclopropanecarboxylic acid]

Source: patent US8541587B2, “Lysophosphatidic acid receptor antagonists” (Amira Pharmaceuticals, Inc., priority 2011, dated 2013)
